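48-hour exposure; five concentrations; linearly interpolated endpoints. The concentration for full growth arrest is given as TGI.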
Columns and labels:
Test in all cases: NCI-60 cell line screen, 48 h
NCI/ADR-RES ovarian = system: NCI/ADR-RES ovarian
BT-549 breast = system: BT-549 breast
HS 578T breast = system: HS 578T breast
HCT-15 colon = system: HCT-15 colon
HOP-62 NSCLC = system: HOP-62 NSCLC
U251 CNS = system: U251 CNS
COLO 205 colon = system: COLO 205 colon
SF-539 CNS = system: SF-539 CNS
IGROV1 ovarian = system: IGROV1 ovarian
K-562 leukemia = system: K-562 leukemia

## O=C(O)CN(CC(=O)O)C(C(=O)O)c1ccccc1 (centres undefined)
NCI/ADR-RES ovarian
  TGI: > 100 µM
BT-549 breast
  TGI: > 100 µM
HS 578T breast
  TGI: > 100 µM
HCT-15 colon
  TGI: > 100 µM
HOP-62 NSCLC
  TGI: > 100 µM
U251 CNS
  TGI: > 100 µM
COLO 205 colon
  TGI: > 100 µM
SF-539 CNS
  TGI: > 100 µM
IGROV1 ovarian
  TGI: > 100 µM
K-562 leukemia
  TGI: > 100 µM

## O=C1CS(=O)(=O)C(c2cccc(Oc3ccccc3)c2)N1c1cc(Cl)ccc1Cl (centres undefined)
NCI/ADR-RES ovarian
  TGI: 77.8 µM
BT-549 breast
  TGI: 41.3 µM
HS 578T breast
  TGI: > 100 µM
HCT-15 colon
  TGI: 69.9 µM
U251 CNS
  TGI: 29.1 µM
COLO 205 colon
  TGI: > 100 µM
SF-539 CNS
  TGI: 44.6 µM
K-562 leukemia
  TGI: > 100 µM

## COC(=O)C1(O)C(c2ccccc2)=NC2(C)CCCC21 (centres undefined)
NCI/ADR-RES ovarian
  TGI: > 100 µM
BT-549 breast
  TGI: > 100 µM
HS 578T breast
  TGI: > 100 µM
HCT-15 colon
  TGI: > 100 µM
HOP-62 NSCLC
  TGI: > 100 µM
U251 CNS
  TGI: > 100 µM
COLO 205 colon
  TGI: > 100 µM
IGROV1 ovarian
  TGI: > 100 µM
K-562 leukemia
  TGI: > 100 µM

## CC(=O)n1nc(-c2ccccc2)n(/N=C/c2ccc([N+](=O)[O-])o2)c1=O
NCI/ADR-RES ovarian
  TGI: 27.5 µM
BT-549 breast
  TGI: 17.6 µM
HS 578T breast
  TGI: 38 µM
HCT-15 colon
  TGI: 15.4 µM
HOP-62 NSCLC
  TGI: 19.6 µM
U251 CNS
  TGI: 33.4 µM
COLO 205 colon
  TGI: 12.7 µM
SF-539 CNS
  TGI: 18.4 µM
IGROV1 ovarian
  TGI: 37.4 µM
K-562 leukemia
  TGI: 37 µM

## CC1=NNC(=O)C1C1CC(c2c[nH]c3ccccc23)=NN=C1Cl (centres undefined)
NCI/ADR-RES ovarian
  TGI: > 100 µM
BT-549 breast
  TGI: > 100 µM
HS 578T breast
  TGI: > 100 µM
HCT-15 colon
  TGI: > 100 µM
HOP-62 NSCLC
  TGI: > 100 µM
U251 CNS
  TGI: > 100 µM
COLO 205 colon
  TGI: 80.6 µM
SF-539 CNS
  TGI: > 100 µM
IGROV1 ovarian
  TGI: > 100 µM
K-562 leukemia
  TGI: 88.6 µM

## O=S1(=O)C[C@@H](NCc2ccccc2)[C@H](NCc2ccccc2)C1
NCI/ADR-RES ovarian
  TGI: > 100 µM
BT-549 breast
  TGI: > 100 µM
HS 578T breast
  TGI: > 100 µM
HOP-62 NSCLC
  TGI: > 100 µM
U251 CNS
  TGI: > 100 µM
COLO 205 colon
  TGI: > 100 µM
SF-539 CNS
  TGI: > 100 µM
IGROV1 ovarian
  TGI: > 100 µM
K-562 leukemia
  TGI: > 100 µM

## CN(C)c1ccc(Cc2cc3c(O)ccc(O)c3cc(Cc3ccc(N(C)C)cc3)c2=O)cc1
NCI/ADR-RES ovarian
  TGI: > 81.8 µM
BT-549 breast
  TGI: 32.2 µM
HS 578T breast
  TGI: 97.9 µM
HCT-15 colon
  TGI: 58 µM
HOP-62 NSCLC
  TGI: > 100 µM
U251 CNS
  TGI: 41.4 µM
COLO 205 colon
  TGI: 36.6 µM
SF-539 CNS
  TGI: 60.9 µM
IGROV1 ovarian
  TGI: 40.2 µM
K-562 leukemia
  TGI: 10.6 µM

## Cc1cc(C)nc(NS(=O)(=O)c2ccc(NC(=O)c3cccc4c(NNc5ccc(S(=O)(=O)N=C(N)N)cc5)c5ccccc5nc34)cc2)n1
NCI/ADR-RES ovarian
  TGI: > 50 µM
BT-549 breast
  TGI: > 50 µM
HS 578T breast
  TGI: > 50 µM
HCT-15 colon
  TGI: > 50 µM
HOP-62 NSCLC
  TGI: > 50 µM
U251 CNS
  TGI: > 50 µM
COLO 205 colon
  TGI: > 50 µM
SF-539 CNS
  TGI: > 50 µM
IGROV1 ovarian
  TGI: > 50 µM
K-562 leukemia
  TGI: > 50 µM

## CCOC(=O)C1CCC(=O)N1C(=O)c1ccccc1Cl (centres undefined)
NCI/ADR-RES ovarian
  TGI: > 100 µM
BT-549 breast
  TGI: > 100 µM
HS 578T breast
  TGI: > 100 µM
HCT-15 colon
  TGI: > 100 µM
HOP-62 NSCLC
  TGI: > 100 µM
U251 CNS
  TGI: > 100 µM
SF-539 CNS
  TGI: > 100 µM
IGROV1 ovarian
  TGI: > 100 µM
K-562 leukemia
  TGI: > 100 µM

## COC1C(O)C(O[C@H]2CC[C@@]3(C)C(CC[C@@H]4[C@@H]3CC[C@]3(C)[C@@H](C(C)OC5OC(CO)C(O)C(O)C5O)CC[C@]43O)C2)OC(C)C1OC1OC(CO)C(O)C(O)C1O (some centres undefined)
NCI/ADR-RES ovarian
  TGI: > 100 µM
BT-549 breast
  TGI: > 100 µM
HS 578T breast
  TGI: > 100 µM
HCT-15 colon
  TGI: > 100 µM
HOP-62 NSCLC
  TGI: > 100 µM
U251 CNS
  TGI: > 100 µM
COLO 205 colon
  TGI: > 100 µM
SF-539 CNS
  TGI: > 100 µM
IGROV1 ovarian
  TGI: > 100 µM
K-562 leukemia
  TGI: > 100 µM

## CCOC(=O)C1=CC(C)(C(=O)OCC)Nc2c(nc(N)[nH]c2=O)N1 (centres undefined)
NCI/ADR-RES ovarian
  TGI: > 10 µM
BT-549 breast
  TGI: > 10 µM
HS 578T breast
  TGI: > 10 µM
HCT-15 colon
  TGI: > 10 µM
HOP-62 NSCLC
  TGI: > 10 µM
U251 CNS
  TGI: > 10 µM
COLO 205 colon
  TGI: > 10 µM
SF-539 CNS
  TGI: > 10 µM
IGROV1 ovarian
  TGI: > 10 µM
K-562 leukemia
  TGI: > 10 µM

## C/C(=C\CO)CC/C=C(\C)CNc1ccc([N+](=O)[O-])cc1
NCI/ADR-RES ovarian
  TGI: 64.5 µM
BT-549 breast
  TGI: 37.5 µM
HS 578T breast
  TGI: 71.6 µM
HCT-15 colon
  TGI: > 100 µM
HOP-62 NSCLC
  TGI: > 100 µM
U251 CNS
  TGI: > 100 µM
COLO 205 colon
  TGI: > 100 µM
SF-539 CNS
  TGI: > 100 µM
IGROV1 ovarian
  TGI: > 100 µM
K-562 leukemia
  TGI: 66.5 µM

## O=[N+]([O-])c1cc(Cl)ccc1Sc1ccccc1
NCI/ADR-RES ovarian
  TGI: > 100 µM
BT-549 breast
  TGI: > 100 µM
HS 578T breast
  TGI: > 100 µM
HCT-15 colon
  TGI: > 100 µM
HOP-62 NSCLC
  TGI: > 100 µM
U251 CNS
  TGI: > 100 µM
COLO 205 colon
  TGI: > 100 µM
SF-539 CNS
  TGI: > 100 µM
IGROV1 ovarian
  TGI: > 100 µM
K-562 leukemia
  TGI: > 100 µM

## COc1nc2c(N3CCCC3)nc(N3CCNCC3)nc2nc1NCc1ccccc1
NCI/ADR-RES ovarian
  TGI: 17.1 µM
BT-549 breast
  TGI: 4.01 µM
HS 578T breast
  TGI: 5.14 µM
HCT-15 colon
  TGI: 3.82 µM
HOP-62 NSCLC
  TGI: 2.29 µM
U251 CNS
  TGI: 3.5 µM
COLO 205 colon
  TGI: 1.98 µM
SF-539 CNS
  TGI: 3.21 µM
IGROV1 ovarian
  TGI: 8.8 µM
K-562 leukemia
  TGI: 3.58 µM

## COC(=O)N1N=C(c2ccccc2)C1c1ccccc1 (centres undefined)
NCI/ADR-RES ovarian
  TGI: 69.2 µM
BT-549 breast
  TGI: > 100 µM
HS 578T breast
  TGI: > 100 µM
HCT-15 colon
  TGI: > 100 µM
U251 CNS
  TGI: > 100 µM
COLO 205 colon
  TGI: > 100 µM
SF-539 CNS
  TGI: > 100 µM
K-562 leukemia
  TGI: 72.7 µM

## c1ccc(C2CC(=NC3CCCCC3)Nc3ccccc3N2)cc1 (centres undefined)
NCI/ADR-RES ovarian
  TGI: > 100 µM
BT-549 breast
  TGI: > 100 µM
HS 578T breast
  TGI: 94.8 µM
HCT-15 colon
  TGI: > 100 µM
HOP-62 NSCLC
  TGI: > 100 µM
U251 CNS
  TGI: > 100 µM
COLO 205 colon
  TGI: > 100 µM
IGROV1 ovarian
  TGI: > 100 µM
K-562 leukemia
  TGI: > 100 µM

## O=[N+]([O-])c1cccc2c(N=Nc3ccc4ccccc4c3O)c(O)cc(S(=O)(=O)O)c12
NCI/ADR-RES ovarian
  TGI: > 100 µM
BT-549 breast
  TGI: > 100 µM
HS 578T breast
  TGI: > 100 µM
HCT-15 colon
  TGI: > 100 µM
HOP-62 NSCLC
  TGI: > 100 µM
U251 CNS
  TGI: > 100 µM
IGROV1 ovarian
  TGI: > 100 µM
K-562 leukemia
  TGI: > 100 µM

## COc1cc2[nH]c(-c3ccccc3)cc(=O)c2c(OC)c1OC
NCI/ADR-RES ovarian
  TGI: > 100 µM
BT-549 breast
  TGI: > 100 µM
HS 578T breast
  TGI: > 100 µM
HCT-15 colon
  TGI: > 100 µM
HOP-62 NSCLC
  TGI: > 100 µM
U251 CNS
  TGI: > 100 µM
COLO 205 colon
  TGI: > 100 µM
IGROV1 ovarian
  TGI: > 100 µM
K-562 leukemia
  TGI: > 100 µM
